Measurements: US20240400717A1, “Antibody Binding to CHI3L1 for Treating Cancer” (National Cheng Kung University, priority 2021, published 2024)

System: MiaPaCa cells
Assay: MiaPaCa orthotopic NOD-SCID mice model
[1] = mAb 5 mg/kg i.v., gemcitabine 50 mg/kg i.p.

Description: Specifically, experimental design of tumor growth inhibition in vivo. MiaPaCa cells (5×10^6) were injected into pancreas of NOD-SCID mice at Day 0. […] Mice were sacrificed on day 34. […] Since fibrosis and angiogenesis are two major issues during tumor progression, we compared the fibrosis and angiogenesis level within each groups.

Structure (SMILES): Nc1ccn([C@@H]2O[C@H](CO)[C@@H](O)C2(F)F)c(=O)n1 [gemcitabine, reference compound]
- level of CHI3L1 in intratumoral region and plasma (end of experiment): lower than IgG control group
- angiogenesis indicated by CD31 expression [1]: decreased in every treatment groups
- body weight [1]: without significant weight loss
- tumor size (mAb 5 mg/kg i.v., gemcitabine 50 mg/kg i.p., Day 7, 14, 21, 28, sacrificed day 34): smaller than IgG control group
